Source: patent publication US20230174530A1, “N-(PHENYLAMINOCARBONYL) TETRAHYDRO-ISOQUINOLINES AND RELATED COMPOUNDS AS MODULATORS OF GPR65” (PATHIOS THERAPEUTICS LIMITED, priority 2020, published 2023)

Target: T1, human recombinant GPR65 (Homo sapiens, UniProt Q8IYL9)
T1 construct: host or cells: 1321N1 human astrocytoma cells (1321N1-hrGPR65)
Assay: Human GPR65 cAMP HTRF antagonist assay
Type: cell-based
Conditions: 1321N1-hrGPR65 cells stimulated at assay pH 7.2; suppression of cAMP rise; read-out: hGPR65 IC50
Protocol: Human GPR65 Cyclic Adenosine Monophosphate (cAMP) Homogeneous Time Resolved Fluorescence (HTRF) Antagonist Assay Procedure
IC50 data was obtained by the following procedure:
1321N1 human astrocytoma cells stably expressing human recombinant GPR65 (1321N1-hrGPR65 cells, EuroscreenFast) were cultured according to the vendor's instructions.
Compounds were tested for their ability to antagonise GPR65, through measuring the concentration of cytoplasmic cAMP following treatment of the cells at a pH of 7.2 to activate GPR65 signalling and addition of the compound to be tested. The extent to which the expected rise in cAMP concentration upon GPR65 activation was suppressed by the added compound is indicative of its potency. The assay was carried out according to EuroscreenFast assay methodology as follows.
On the day of the assay, test compounds were added to 384-well, low volume, white microtiter plates by acoustic dispensing. KRH buffer (5 mM KCl, 1.25 mM MgSO4, 124 mM NaCl, 25 mM HEPES, 13.3 mM Glucose, 1.25 mM KH2PO4 and 1.45 mM CaCl2) was adjusted to pH 6.5, pH 7.6 and pH 8.4 by adding NaOH. 1321N1-hGPR65 cells were rapidly thawed and diluted in KRH, pH 7.6 prior to centrifugation at 300×g for 5 min and resuspension in assay buffer (KRH, pH 7.6, supplemented with 1 mM 3-isobutyl-1-methylxanthine (IBMX) and 200 μM ethylenediaminetetraacetic acid (EDTA)). Cells were added to assay plates at a density of 2,000 cells per well in a volume of 5 μl. Assay plates were briefly centrifuged at 100×g and then incubated at room temperature for 30 min. Cells were stimulated by the addition of 5 μL KRH, pH 6.5, to achieve an assay pH of 7.2, while control wells received 5 μl KRH, pH 8.4 to achieve an assay pH of 7.9. Assay plates were briefly centrifuged at 100×g and then incubated at room temperature for 30 min.
Accumulation of cAMP was detected by cAMP HTRF kit (Cisbio). d2-labeled cAMP and cryptate-labeled anti-cAMP antibody in Lysis and Detection Buffer (Cisbio) were added to assay plates, and the plates were incubated at room temperature for 1 h. HTRF measurements were performed using a Pherastar FSX instrument. Acceptor and donor emission signals were measured at 665 nm and 620 nm, respectively, and HTRF ratios were calculated as signal665 nm/signal620 nm×10^4. Data were normalised to high and low control values and fitted with 4-parameter logistic regression to determine hGPR65 IC50 values for the test compounds, which are shown in Table 1.

T1 sequence (Q8IYL9 whole entry): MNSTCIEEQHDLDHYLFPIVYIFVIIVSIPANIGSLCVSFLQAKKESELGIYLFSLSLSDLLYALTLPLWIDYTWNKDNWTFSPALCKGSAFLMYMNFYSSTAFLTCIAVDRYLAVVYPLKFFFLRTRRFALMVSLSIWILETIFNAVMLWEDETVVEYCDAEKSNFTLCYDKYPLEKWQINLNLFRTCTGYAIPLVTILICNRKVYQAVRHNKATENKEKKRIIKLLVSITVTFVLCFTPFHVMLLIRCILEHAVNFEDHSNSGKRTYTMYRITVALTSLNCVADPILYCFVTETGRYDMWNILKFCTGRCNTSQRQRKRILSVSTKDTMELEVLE

Compound	IC50
O=C(Nc1ccc(C(F)(F)F)c(Cl)c1)N1CCc2cc(C(F)(F)F)ccc2C1 [Compound 72, N-(3-Chloro-4-(trifluoromethyl)phenyl)-6-(trifluoromethyl)-3,4-dihydroisoquinoline-2(1H)-carboxamide]	> 5 µM
O=C(Nc1ccc(C(F)(F)F)c(Cl)c1)N1CCc2cc(=O)[nH]cc2C1 [Compound 74, N-(3-Chloro-4-(trifluoromethyl)phenyl)-6-oxo-3,4,6,7-tetrahydro-2,7-naphthyridine-2(1H)-carboxamide]	< 0.5 µM
O=C(Nc1ccc(Cl)c(Cl)c1)N1CCc2cc(=O)[nH]cc2C1 [Compound 76, N-(3,4-Dichlorophenyl)-6-oxo-3,4,6,7-tetrahydro-2,7-naphthyridine-2(1H)-carboxamide]	< 0.5 µM
O=C(Nc1ccc(Cl)c(C(F)(F)F)c1)N1CCc2[nH]c(=O)ccc2C1 [Compound 77, N-(4-Chloro-3-(trifluoromethyl)phenyl)-2-oxo-1,5,7,8-tetrahydro-1,6-naphthyridine-6(2H)-carboxamide]	> 5 µM
O=C(Nc1ccc(Cl)c(Cl)c1)N1CCc2[nH]c(=O)ccc2C1 [Compound 78, N-(3,4-Dichlorophenyl)-2-oxo-1,5,7,8-tetrahydro-1,6-naphthyridine-6(2H)-carboxamide]	> 5 µM
O=C(Nc1ccc(C(F)(F)F)c(Cl)c1)N1CCc2c[n+]([O-])ccc2C1 [Compound 79, 6-((3-Chloro-4-(trifluoromethyl)phenyl)carbamoyl)-5,6,7,8-tetrahydro-2,6-naphthyridine 2-oxide]	< 0.5 µM
O=C(Nc1ccc(Cl)c(Cl)c1)N1CCc2oncc2C1 [Compound 80, N-(3,4-Dichlorophenyl)-6,7-dihydroisoxazolo[4,5-c]pyridine-5(4H)-carboxamide]	0.5 to 5 µM
O=C(Nc1ccc(Cl)c(Cl)c1)N1CCc2ccccc2C1 [Compound 81, N-(3,4-Dichlorophenyl)-3,4-dihydroisoquinoline-2(1H)-carboxamide]	0.5 to 5 µM
Nc1cc2c(cn1)CCN(C(=O)Nc1ccc(Cl)c(Cl)c1)C2 [Compound 82, 7-Amino-N-(3,4-dichlorophenyl)-3,4-dihydro-2,6-naphthyridine-2(1H)-carboxamide]	< 0.5 µM
Nc1cc2c(cn1)CCN(C(=O)Nc1ccc(C(F)(F)F)c(Cl)c1)C2 [Compound 83, 7-Amino-N-(3-chloro-4-(trifluoromethyl)phenyl)-3,4-dihydro-2,6-naphthyridine-2(1H)-carboxamide]	< 0.5 µM
Nc1cc2c(cn1)CN(C(=O)Nc1ccc(Cl)c(Cl)c1)CC2 [Compound 84, 6-Amino-N-(3,4-dichlorophenyl)-3,4-dihydro-2,7-naphthyridine-2(1H)-carboxamide]	> 5 µM
O=C(Nc1ccc(Cl)c(Cl)c1)N1CCc2cc(F)ncc2C1 [Compound 85, N-(3,4-dichlorophenyl)-6-fluoro-3,4-dihydro-2,7-naphthyridine-2(1H)-carboxamide]	< 0.5 µM
O=C(Nc1ccc(Cl)c(Cl)c1)N1CCc2cnc(F)cc2C1 [Compound 86, N-(3,4-Dichlorophenyl)-7-fluoro-3,4-dihydro-2,6-naphthyridine-2(1H)-carboxamide]	0.5 to 5 µM
O=C(Nc1ccc(C(F)(F)F)c(Cl)c1)N1CCc2cnc(F)cc2C1 [Compound 87, N-(3-Chloro-4-(trifluoromethyl)phenyl)-7-fluoro-3,4-dihydro-2,6-naphthyridine-2(1H)-carboxamide]	0.5 to 5 µM
O=C(Nc1ccc(Cl)c(Cl)c1)N1CCc2[nH]c(=O)ncc2C1 [Compound 88, N-(3,4-Dichlorophenyl)-2-oxo-1,5,7,8-tetrahydropyrido[4,3-d]pyrimidine-6(2H)-carboxamide]	0.5 to 5 µM
O=C(Nc1ccc(Cl)c(C(F)(F)F)c1)N1CCc2cc(=O)[nH]cc2C1 [Compound 89, N-(4-chloro-3-(trifluoromethyl)phenyl)-6-oxo-3,4,6,7-tetrahydro-2,7-naphthyridine-2(1H)-carboxamide]	0.5 to 5 µM
O=C(Nc1ccc(C(F)(F)F)c(Cl)c1)N1CCc2cnc(Cl)cc2C1 [Compound 90, 7-Chloro-N-(3-chloro-4-(trifluoromethyl)phenyl)-3,4-dihydro-2,6-naphthyridine-2(1H)-carboxamide]	0.5 to 5 µM
O=C(Nc1ccc(C(F)(F)F)c(Cl)c1)N1CCc2cc(Cl)ncc2C1 [Compound 91, 6-Chloro-N-(3-chloro-4-(trifluoromethyl)phenyl)-3,4-dihydro-2,7-naphthyridine-2(1H)-carboxamide]	0.5 to 5 µM
Cn1cc2c(cc1=O)CCN(C(=O)Nc1ccc(Cl)c(Cl)c1)C2 [Compound 92, N-(3,4-Dichlorophenyl)-7-methyl-6-oxo-3,4,6,7-tetrahydro-2,7-naphthyridine-2(1H)-carboxamide]	> 5 µM
CC1c2ccc(F)cc2CCN1C(=O)Nc1ccc(Cl)c(Cl)c1 (stereo not shown) [Compound 93, N-(3,4-Dichlorophenyl)-6-fluoro-1-methyl-3,4-dihydroisoquinoline-2(1H)-carboxamide]	< 0.5 µM
O=C(Nc1ccc(C(F)(F)F)c(Cl)c1)N1CCc2cc[n+]([O-])cc2C1 [Compound 94, 7-((3-Chloro-4-(trifluoromethyl)phenyl)carbamoyl)-5,6,7,8-tetrahydro-2,7-naphthyridine 2-oxide]	> 5 µM
O=C(Nc1ccc(Cl)c(Cl)c1)N1CCc2cc(O)ccc2C1 [Compound 95, N-(3,4-Dichlorophenyl)-6-hydroxy-3,4-dihydroisoquinoline-2(1H)-carboxamide]	> 5 µM

Results, then the molecule that gave them:

IC50	Compound
0.5 to 5 µM	O=C(Nc1ccc(Cl)c(Cl)c1)N1CCc2ccc(O)cc2C1 [Compound 96, N-(3,4-Dichlorophenyl)-7-hydroxy-3,4-dihydroisoquinoline-2(1H)-carboxamide]
> 5 µM	O=C(Nc1ccc(C(F)(F)F)c(Cl)c1)N1CCc2ccnc(Cl)c2C1 [Compound 97, 8-Chloro-N-(3-chloro-4-(trifluoromethyl)phenyl)-3,4-dihydro-2,7-naphthyridine-2(1H)-carboxamide]
0.5 to 5 µM	O=C(Nc1ccc(Cl)c(Cl)c1)N1CCc2nocc2C1 [Compound 98, N-(3,4-Dichlorophenyl)-6,7-dihydroisoxazolo[4,3-c]pyridine-5(4H)-carboxamide]
> 5 µM	O=C(Nc1ccc(Cl)c(Cl)c1)N1CCc2c[nH]c(=O)cc2C1 [Compound 99, N-(3,4-Dichlorophenyl)-7-oxo-3,4,6,7-tetrahydro-2,6-naphthyridine-2(1H)-carboxamide]
> 5 µM	O=C(Nc1ccc(C(F)(F)F)c(Cl)c1)N1CCc2c[nH]c(=O)cc2C1 [Compound 100, N-(3-Chloro-4-(trifluoromethyl)phenyl)-7-oxo-3,4,6,7-tetrahydro-2,6-naphthyridine-2(1H)-carboxamide]
0.5 to 5 µM	O=C(Nc1ccc(Cl)c(Cl)c1)N1CCc2nonc2C1 [Compound 101, N-(3,4-Dichlorophenyl)-6,7-dihydro-[1,2,5]oxadiazolo[3,4-c]pyridine-5(4H)-carboxamide]
0.5 to 5 µM	N#Cc1cc2c(cn1)CN(C(=O)Nc1ccc(Cl)c(Cl)c1)CC2 [Compound 102, 6-Cyano-N-(3,4-dichlorophenyl)-3,4-dihydro-2,7-naphthyridine-2(1H)-carboxamide]
0.5 to 5 µM	N#Cc1cc2c(cn1)CCN(C(=O)Nc1ccc(Cl)c(Cl)c1)C2 [Compound 103, 7-Cyano-N-(3,4-dichlorophenyl)-3,4-dihydro-2,6-naphthyridine-2(1H)-carboxamide]
< 0.5 µM	O=C(Nc1ccc(C(F)(F)F)c(Cl)c1)N1CCc2cc(F)ncc2C1 [Compound 104, N-(3-chloro-4-(trifluoromethyl)phenyl)-6-fluoro-3,4-dihydro-2,7-naphthyridine-2(1H)-carboxamide]
> 5 µM	COc1cc2c(cn1)CCN(C(=O)Nc1ccc(Cl)c(Cl)c1)C2 [Compound 105, N-(3,4-Dichlorophenyl)-7-methoxy-3,4-dihydro-2,6-naphthyridine-2(1H)-carboxamide]
< 0.5 µM	O=C(Nc1ccc(Cl)c(Cl)c1)N1CCc2cc(F)c(F)cc2C1 [Compound 106, N-(3,4-Dichlorophenyl)-6,7-difluoro-3,4-dihydroisoquinoline-2(1H)-carboxamide]
> 5 µM	COc1cc2c(cn1)CCN(C(=O)Nc1ccc(C(F)(F)F)c(Cl)c1)C2 [Compound 107, N-(3-Chloro-4-(trifluoromethyl)phenyl)-7-methoxy-3,4-dihydro-2,6-naphthyridine-2(1H)-carboxamide]
